According to the NIST ThermoML archive (doi:10.1016/j.fluid.2013.03.030):
Numbers after ± are expanded uncertainties.

Key:
[1] = xn = mol fraction of the nth substance listed; conditions: 298.15 K, 100 kPa, Liquid, Sing-around technique in a fixed-path interferometer
[2] = wn = mass fraction of the nth substance listed; conditions: 298.15 K, 100 kPa, Liquid; for viscosity: Capillary tube (Ostwald / Ubbelohde) method; for mass density: Vibrating tube method
[3] = refractive index (other wavelength) (dimensionless); wn = mass fraction of the nth substance listed; conditions: 298.15 K, 100 kPa, Liquid, Wavelength=589.3 nm, Digital Refractometer Mettler Toledo

CCCC[P+](CCCC)(CCCC)CCCC.F[B-](F)(F)F [tetrabutylphosphonium tetrafluoroborate] + O
Conditions	mass density, [2] [kg/m3]	refractive index, [3]	speed of sound, [1] [m/s]	viscosity, [2] [mPa·s]
w1 = 0.001	997.16 ± 5.4	1.3326 ± 0.0011	–	0.901 ± 0.024
w1 = 0.003	998.67 ± 5.4	1.3333 ± 0.0011	–	0.909 ± 0.024
w1 = 0.005	1000.05 ± 5.4	1.3341 ± 0.0011	–	0.914 ± 0.024
x1 = 0.001	–	–	1498.9 ± 5.1	–
x1 = 0.003	–	–	1502.6 ± 5.1	–
x1 = 0.005	–	–	1507.5 ± 5	–
